Laboratory results: patent publication US20130260376A1, “Prediction of and Monitoring Cancer Therapy Response Based on Gene Expression Profiling” (WHITEHEAD INSTITUTE FOR BIOMEDICAL RESEARCH, priority 2010, published 2013)

System: HMLER breast cancer populations
Experiment: Microarray gene expression / Gene Set Enrichment Analysis of HMLER cells after drug treatment versus DMSO control
Format: cell-based
Settings: relative to DMSO control, GSEA; for collective expression level of the genes in Table 1 (EMT-associated genes) and subsets thereof upon treatment: FIGS. 2 and 5; for collective expression level of the genes in Table 2 (non-EMT-associated genes) and subsets thereof upon treatment: FIGS. 3 and 4
Procedure: The collective expression levels of the genes in Tables 1 and 2 after paclitaxel treatment were then determined. For these analyses, which are shown in FIGS. 2 and 3, collections of gene subsets of various sizes were chosen.
Next, identical analyses as those described above were performed in the context of treatment with a different anti-cancer agent—salinomycin—that was previously identified as specifically killing invasive cancer stem cells. The opposite expression change (relative to paclitaxel) was observed upon treatment with salinomycin. […] As a consequence, measurement of the expression of the genes in Table 1 (or any appropriate subsets thereof identified according to the methods disclosed herein) would serve to identify tumors that would be responsive to a CSS agent (e.g., salinomycin treatment) when applied as a single agent.

| Structure (SMILES) | collective expression level of the genes in Table 1 (EMT-associated genes) and subsets thereof upon treatment | collective expression level of the genes in Table 2 (non-EMT-associated genes) and subsets thereof upon treatment |
| --- | --- | --- |
| CC(=O)O[C@H]1C(=O)[C@@]2(C)[C@H]([C@H](OC(=O)c3ccccc3)[C@]3(O)C[C@H](OC(=O)[C@H](O)[C@@H](NC(=O)c4ccccc4)c4ccccc4)C(C)=C1C3(C)C)[C@]1(OC(C)=O)CO[C@@H]1C[C@@H]2O [paclitaxel] | over-expressed | under-expressed |
| CC[C@@H](C(=O)[C@@H](C)[C@@H](O)[C@H](C)[C@@H]1O[C@@H]([C@@H](CC)C(=O)O)CC[C@@H]1C)[C@H]1O[C@]2(C=C[C@@H](O)[C@]3(CC[C@@](C)([C@H]4CC[C@](O)(CC)[C@H](C)O4)O3)O2)[C@H](C)C[C@@H]1C [salinomycin] | under-expressed | over-expressed |
